Results reported in the kinase profiling compilation of Christmann-Franck et al. (2016).

Assays:
Assay in all cases: radiometric filter-binding kinase assay
CLK2 (human) = CLK2 (human) (UniProt P49760)
HIPK3 (human) = HIPK3 (human) (UniProt Q9H422)
STK3 (human) = STK3 (human) (UniProt Q13188)
PRKCZ (human) = PRKCZ (human) (UniProt Q05513)
JAK2 JH1 JH2 (human) = JAK2 JH1 JH2 (human) (UniProt O60674)
MST4 (human) = MST4 (human) (UniProt Q9P289)
MAP3K5 (human) = MAP3K5 (human) (UniProt Q99683)
PLK1 (human) = PLK1 (human) (UniProt P53350)
Chain of PLK1 (human) (P53350 whole entry, looked up): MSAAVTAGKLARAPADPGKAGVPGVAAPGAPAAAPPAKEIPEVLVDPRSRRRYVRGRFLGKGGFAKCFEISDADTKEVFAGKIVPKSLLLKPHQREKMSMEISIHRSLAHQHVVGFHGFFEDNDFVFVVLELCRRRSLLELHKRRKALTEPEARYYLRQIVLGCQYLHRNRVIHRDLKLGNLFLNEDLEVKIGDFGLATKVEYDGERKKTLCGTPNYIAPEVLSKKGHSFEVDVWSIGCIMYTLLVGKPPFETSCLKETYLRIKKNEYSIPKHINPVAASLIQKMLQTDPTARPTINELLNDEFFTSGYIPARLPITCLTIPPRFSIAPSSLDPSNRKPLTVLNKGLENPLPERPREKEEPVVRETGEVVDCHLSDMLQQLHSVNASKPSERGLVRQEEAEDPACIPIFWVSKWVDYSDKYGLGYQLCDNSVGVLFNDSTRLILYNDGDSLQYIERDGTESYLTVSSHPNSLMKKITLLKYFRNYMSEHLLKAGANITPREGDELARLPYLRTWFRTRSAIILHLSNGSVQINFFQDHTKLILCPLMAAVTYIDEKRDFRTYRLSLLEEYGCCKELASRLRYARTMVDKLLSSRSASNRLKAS

MARK3 (human) = MARK3 (human) (UniProt P27448)
PRKCA (human) = PRKCA (human) (UniProt P17252)
FLT1 (human) = FLT1 (human) (UniProt P17948)
NUAK1 (human) = NUAK1 (human) (UniProt O60285)
MAPK1 (human) = MAPK1 (human) (UniProt P28482)
RPS6KA5 KD1 KD2 (human) = RPS6KA5 KD1 KD2 (human) (UniProt O75582); details: compound 1.0 µM
TAOK1 (human) = TAOK1 (human) (UniProt Q7L7X3)
HIPK1 (human) = HIPK1 (human) (UniProt Q86Z02)
EPHB4 (human) = EPHB4 (human) (UniProt P54760)
ERBB4 (human) = ERBB4 (human) (UniProt Q15303)
Chain of ERBB4 (human) (Q15303 whole entry, looked up): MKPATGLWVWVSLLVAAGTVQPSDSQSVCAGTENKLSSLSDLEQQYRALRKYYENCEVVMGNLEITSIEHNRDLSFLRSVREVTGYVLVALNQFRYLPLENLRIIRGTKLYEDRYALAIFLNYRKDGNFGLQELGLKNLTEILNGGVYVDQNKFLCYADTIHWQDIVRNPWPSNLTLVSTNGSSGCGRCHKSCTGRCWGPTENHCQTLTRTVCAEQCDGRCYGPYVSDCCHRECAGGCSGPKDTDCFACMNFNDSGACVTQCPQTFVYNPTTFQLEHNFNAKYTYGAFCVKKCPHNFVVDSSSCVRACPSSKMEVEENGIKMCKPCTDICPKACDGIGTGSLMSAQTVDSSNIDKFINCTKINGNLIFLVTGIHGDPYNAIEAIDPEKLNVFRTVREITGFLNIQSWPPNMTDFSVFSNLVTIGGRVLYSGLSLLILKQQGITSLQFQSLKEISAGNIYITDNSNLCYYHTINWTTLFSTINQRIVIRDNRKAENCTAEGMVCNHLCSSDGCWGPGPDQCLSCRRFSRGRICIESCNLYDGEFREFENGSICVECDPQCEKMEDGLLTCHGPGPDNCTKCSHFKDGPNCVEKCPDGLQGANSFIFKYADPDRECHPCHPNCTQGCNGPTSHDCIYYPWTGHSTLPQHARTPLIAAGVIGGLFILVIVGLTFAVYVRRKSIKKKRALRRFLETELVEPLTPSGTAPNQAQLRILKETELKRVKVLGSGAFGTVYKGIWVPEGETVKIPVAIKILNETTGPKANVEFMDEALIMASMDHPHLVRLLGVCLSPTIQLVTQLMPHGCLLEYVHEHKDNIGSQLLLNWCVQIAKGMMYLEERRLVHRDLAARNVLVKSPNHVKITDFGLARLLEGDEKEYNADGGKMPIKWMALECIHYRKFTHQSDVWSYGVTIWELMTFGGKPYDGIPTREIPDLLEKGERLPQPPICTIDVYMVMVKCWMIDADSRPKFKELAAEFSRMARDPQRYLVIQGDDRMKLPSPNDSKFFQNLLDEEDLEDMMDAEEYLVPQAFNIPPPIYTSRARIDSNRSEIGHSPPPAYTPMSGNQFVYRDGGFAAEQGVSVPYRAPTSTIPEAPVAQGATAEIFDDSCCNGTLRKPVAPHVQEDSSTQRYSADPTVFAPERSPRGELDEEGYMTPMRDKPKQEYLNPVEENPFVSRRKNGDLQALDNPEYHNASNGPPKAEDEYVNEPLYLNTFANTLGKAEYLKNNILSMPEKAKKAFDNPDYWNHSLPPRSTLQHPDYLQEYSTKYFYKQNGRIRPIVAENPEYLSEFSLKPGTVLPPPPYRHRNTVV

BRSK2 (human) = BRSK2 (human) (UniProt Q8IWQ3)
AURKA (human) = AURKA (human) (UniProt O14965); details: compound 1.0 µM
SRC (human) = SRC (human) (UniProt P12931)
MAPK3 (human) = MAPK3 (human) (UniProt P27361)
Chain of MAPK3 (human) (P27361 whole entry, looked up): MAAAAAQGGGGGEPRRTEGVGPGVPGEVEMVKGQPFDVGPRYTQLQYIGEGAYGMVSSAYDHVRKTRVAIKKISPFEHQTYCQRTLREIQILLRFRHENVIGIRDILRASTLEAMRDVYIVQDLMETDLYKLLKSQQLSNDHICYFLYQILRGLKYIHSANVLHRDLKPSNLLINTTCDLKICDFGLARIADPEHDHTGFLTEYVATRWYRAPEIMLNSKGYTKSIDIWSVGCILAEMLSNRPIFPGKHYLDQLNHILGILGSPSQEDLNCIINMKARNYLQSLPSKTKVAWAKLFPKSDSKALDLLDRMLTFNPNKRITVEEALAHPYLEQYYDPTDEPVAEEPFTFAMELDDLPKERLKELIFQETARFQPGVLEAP

MAP3K1 (human) = MAP3K1 (human) (UniProt Q13233)
EEF2K (human) = EEF2K (human) (UniProt O00418); details: compound 1.0 µM
CDK2 CCNA2 (human) = CDK2 CCNA2 (human) (UniProt P20248+P24941)
PAK6 (human) = PAK6 (human) (UniProt Q9NQU5)
GCK (human) = GCK (human) (UniProt Q12851)
Chain of GCK (human) (Q12851 whole entry, looked up): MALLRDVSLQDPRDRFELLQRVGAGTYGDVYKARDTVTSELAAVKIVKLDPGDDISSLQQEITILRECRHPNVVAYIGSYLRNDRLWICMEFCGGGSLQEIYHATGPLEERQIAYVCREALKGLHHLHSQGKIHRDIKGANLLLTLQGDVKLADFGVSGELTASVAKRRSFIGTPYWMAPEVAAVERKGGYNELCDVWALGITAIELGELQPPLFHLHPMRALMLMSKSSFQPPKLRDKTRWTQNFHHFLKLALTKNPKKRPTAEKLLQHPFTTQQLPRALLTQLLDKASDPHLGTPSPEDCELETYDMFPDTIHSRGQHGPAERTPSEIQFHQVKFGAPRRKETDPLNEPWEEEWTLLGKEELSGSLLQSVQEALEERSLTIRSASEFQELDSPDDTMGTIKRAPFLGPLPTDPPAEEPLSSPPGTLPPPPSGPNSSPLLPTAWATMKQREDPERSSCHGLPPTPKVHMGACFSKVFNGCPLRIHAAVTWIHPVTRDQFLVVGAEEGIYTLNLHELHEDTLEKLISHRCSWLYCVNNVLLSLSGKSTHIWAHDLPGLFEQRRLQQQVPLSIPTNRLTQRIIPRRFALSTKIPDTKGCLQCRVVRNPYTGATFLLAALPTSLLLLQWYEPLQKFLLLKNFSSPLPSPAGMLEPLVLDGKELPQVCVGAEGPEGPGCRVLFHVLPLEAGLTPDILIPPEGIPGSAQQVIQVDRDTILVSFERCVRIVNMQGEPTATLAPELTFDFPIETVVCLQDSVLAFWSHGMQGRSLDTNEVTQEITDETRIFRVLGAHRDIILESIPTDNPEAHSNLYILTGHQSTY

MARK4 (human) = MARK4 (human) (UniProt Q96L34)
CHEK2 (human) = CHEK2 (human) (UniProt O96017)
RPS6KA3 KD1 KD2 (human) = RPS6KA3 KD1 KD2 (human) (UniProt P51812)
[1] = test system: SGK1 (human), O00141 [S422D]
DAPK1 (human) = DAPK1 (human) (UniProt P53355)
Chain of DAPK1 (human) (P53355 whole entry, looked up): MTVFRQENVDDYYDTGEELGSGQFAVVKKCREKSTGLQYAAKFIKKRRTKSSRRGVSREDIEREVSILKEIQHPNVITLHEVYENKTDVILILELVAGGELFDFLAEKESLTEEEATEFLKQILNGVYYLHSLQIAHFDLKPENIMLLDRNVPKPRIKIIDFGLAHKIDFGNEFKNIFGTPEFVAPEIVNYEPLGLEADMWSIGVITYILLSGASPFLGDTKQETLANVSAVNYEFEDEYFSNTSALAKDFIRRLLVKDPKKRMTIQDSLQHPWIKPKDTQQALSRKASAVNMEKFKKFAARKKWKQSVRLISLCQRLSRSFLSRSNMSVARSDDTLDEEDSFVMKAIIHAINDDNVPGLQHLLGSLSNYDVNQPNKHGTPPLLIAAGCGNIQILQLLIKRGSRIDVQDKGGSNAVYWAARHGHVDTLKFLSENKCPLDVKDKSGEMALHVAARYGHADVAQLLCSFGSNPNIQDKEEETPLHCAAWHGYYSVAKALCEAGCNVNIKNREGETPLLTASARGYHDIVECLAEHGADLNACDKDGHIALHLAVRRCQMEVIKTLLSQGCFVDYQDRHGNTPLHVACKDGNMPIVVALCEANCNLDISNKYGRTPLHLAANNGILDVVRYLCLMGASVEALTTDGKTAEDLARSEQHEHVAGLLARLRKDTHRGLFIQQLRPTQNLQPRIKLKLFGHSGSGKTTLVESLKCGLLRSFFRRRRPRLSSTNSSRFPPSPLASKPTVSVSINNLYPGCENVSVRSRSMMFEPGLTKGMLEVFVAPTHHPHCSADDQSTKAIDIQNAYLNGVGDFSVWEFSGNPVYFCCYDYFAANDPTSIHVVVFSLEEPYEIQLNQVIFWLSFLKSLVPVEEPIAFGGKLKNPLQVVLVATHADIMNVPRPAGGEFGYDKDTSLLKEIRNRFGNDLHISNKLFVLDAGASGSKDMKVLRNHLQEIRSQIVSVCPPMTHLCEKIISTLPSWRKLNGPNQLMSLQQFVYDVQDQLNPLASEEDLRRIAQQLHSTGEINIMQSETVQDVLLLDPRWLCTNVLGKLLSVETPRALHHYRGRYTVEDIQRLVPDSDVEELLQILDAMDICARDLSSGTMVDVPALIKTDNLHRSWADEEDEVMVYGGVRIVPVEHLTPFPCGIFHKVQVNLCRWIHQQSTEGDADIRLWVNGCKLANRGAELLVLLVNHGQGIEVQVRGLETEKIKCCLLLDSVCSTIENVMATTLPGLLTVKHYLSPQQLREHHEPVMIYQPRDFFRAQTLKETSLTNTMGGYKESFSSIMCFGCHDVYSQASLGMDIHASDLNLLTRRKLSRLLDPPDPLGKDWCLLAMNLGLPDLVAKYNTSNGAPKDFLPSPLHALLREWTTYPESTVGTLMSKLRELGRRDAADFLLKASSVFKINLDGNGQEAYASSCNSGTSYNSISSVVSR

NTRK1 (human) = NTRK1 (human) (UniProt P04629)
CHEK1 (human) = CHEK1 (human) (UniProt O14757)
RPS6KA1 KD1 KD2 (human) = RPS6KA1 KD1 KD2 (human) (UniProt Q15418)

Chain of MST4 (human) (Q9P289 whole entry, looked up): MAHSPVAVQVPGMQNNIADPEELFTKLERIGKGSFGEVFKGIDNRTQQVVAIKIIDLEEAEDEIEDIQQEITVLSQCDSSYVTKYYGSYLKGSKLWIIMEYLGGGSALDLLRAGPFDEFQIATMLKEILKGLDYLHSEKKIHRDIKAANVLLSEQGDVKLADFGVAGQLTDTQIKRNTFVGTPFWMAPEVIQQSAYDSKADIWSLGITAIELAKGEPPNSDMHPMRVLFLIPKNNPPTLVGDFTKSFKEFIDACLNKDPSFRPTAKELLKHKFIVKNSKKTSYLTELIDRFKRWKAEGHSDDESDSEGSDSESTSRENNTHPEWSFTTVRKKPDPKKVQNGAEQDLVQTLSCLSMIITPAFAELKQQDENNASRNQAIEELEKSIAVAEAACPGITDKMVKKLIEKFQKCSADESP

COc1cc(O)c2c(c1)/C=C/C[C@H](O)[C@H](O)C(=O)/C=C\C[C@H](C)OC2=O
residual activity (CLK2 (human); compound 0.1 µM): 96% | residual activity (CLK2 (human); compound 1.0 µM): 90% | residual activity (HIPK3 (human); compound 0.1 µM): 90% | residual activity (HIPK3 (human); compound 1.0 µM): 103% | residual activity (STK3 (human); compound 0.1 µM): 120% | residual activity (STK3 (human); compound 1.0 µM): 89% | residual activity (PRKCZ (human); compound 0.1 µM): 105% | residual activity (PRKCZ (human); compound 1.0 µM): 99% | residual activity (JAK2 JH1 JH2 (human); compound 0.1 µM): 108% | residual activity (JAK2 JH1 JH2 (human); compound 1.0 µM): 75% | residual activity (MST4 (human); compound 0.1 µM): 129% | residual activity (MST4 (human); compound 1.0 µM): 72% | residual activity (MAP3K5 (human); compound 0.1 µM): 91% | residual activity (MAP3K5 (human); compound 1.0 µM): 95% | residual activity (PLK1 (human); compound 0.1 µM): 103% | residual activity (PLK1 (human); compound 1.0 µM): 100% | residual activity (MARK3 (human); compound 0.1 µM): 116% | residual activity (MARK3 (human); compound 1.0 µM): 77% | residual activity (PRKCA (human); compound 0.1 µM): 107% | residual activity (PRKCA (human); compound 1.0 µM): 85% | residual activity (FLT1 (human); compound 0.1 µM): 8% | residual activity (FLT1 (human); compound 1.0 µM): 13% | residual activity (NUAK1 (human); compound 0.1 µM): 113% | residual activity (NUAK1 (human); compound 1.0 µM): 78% | residual activity (MAPK1 (human); compound 0.1 µM): 103% | residual activity (MAPK1 (human); compound 1.0 µM): 65% | residual activity (RPS6KA5 KD1 KD2 (human)): 100% | residual activity (TAOK1 (human); compound 0.1 µM): 103% | residual activity (TAOK1 (human); compound 1.0 µM): 66% | residual activity (HIPK1 (human); compound 0.1 µM): 102% | residual activity (HIPK1 (human); compound 1.0 µM): 98% | residual activity (EPHB4 (human); compound 0.1 µM): 87% | residual activity (EPHB4 (human); compound 1.0 µM): 90% | residual activity (ERBB4 (human); compound 0.1 µM): 100% | residual activity (ERBB4 (human); compound 1.0 µM): 95% | residual activity (BRSK2 (human); compound 0.1 µM): 84% | residual activity (BRSK2 (human); compound 1.0 µM): 88% | residual activity (AURKA (human)): 105% | residual activity (SRC (human); compound 0.1 µM): 106% | residual activity (SRC (human); compound 1.0 µM): 43% | residual activity (MAPK3 (human); compound 0.1 µM): 106% | residual activity (MAPK3 (human); compound 1.0 µM): 64% | residual activity (MAP3K1 (human); compound 0.1 µM): 107% | residual activity (MAP3K1 (human); compound 1.0 µM): 92% | residual activity (EEF2K (human)): 85% | residual activity (CDK2 CCNA2 (human); compound 0.1 µM): 119% | residual activity (CDK2 CCNA2 (human); compound 1.0 µM): 88% | residual activity (PAK6 (human); compound 0.1 µM): 100% | residual activity (PAK6 (human); compound 1.0 µM): 87% | residual activity (GCK (human); compound 0.1 µM): 121% | residual activity (GCK (human); compound 1.0 µM): 80% | residual activity (MARK4 (human); compound 0.1 µM): 107% | residual activity (MARK4 (human); compound 1.0 µM): 86% | residual activity (CHEK2 (human); compound 0.1 µM): 110% | residual activity (CHEK2 (human); compound 1.0 µM): 87% | residual activity (RPS6KA3 KD1 KD2 (human); compound 0.1 µM): 106% | residual activity (RPS6KA3 KD1 KD2 (human); compound 1.0 µM): 70% | residual activity ([1]; compound 0.1 µM): 106% | residual activity ([1]; compound 1.0 µM): 95% | residual activity (DAPK1 (human); compound 0.1 µM): 108% | residual activity (DAPK1 (human); compound 1.0 µM): 94% | residual activity (NTRK1 (human); compound 0.1 µM): 46% | residual activity (NTRK1 (human); compound 1.0 µM): 24% | residual activity (CHEK1 (human); compound 0.1 µM): 114% | residual activity (CHEK1 (human); compound 1.0 µM): 92% | residual activity (RPS6KA1 KD1 KD2 (human); compound 0.1 µM): 113% | residual activity (RPS6KA1 KD1 KD2 (human); compound 1.0 µM): 90%
